Experiments:
[1] = target: T1, COX-1 (Homo sapiens, UniProt P23219); assay: Human whole blood assay, COX-1 (clotting-induced TxB2 production); assay type: cell-based; design: platelets in whole blood contain a large amount of the COX-1 enzyme; from tissue; host or cells: fresh human whole blood (platelets), allowed to clot; details: clotting-induced TxB2, 1 hour at 37° C, read-out: COX-1 (IC50 μM) HWB
Protocol: Human whole blood provides a protein and cell-rich milieu appropriate for the study of biochemical efficacy of anti-inflammatory compounds such as selective COX-2 inhibitors. […] This is consistent with the observation that COX-2 inhibitors have no effect on PGE2 production in normal blood. These inhibitors are active only after incubation of human whole blood with LPS, which induces COX-2. This assay can be used to evaluate the inhibitory effect of selective COX-2 inhibitors on PGE2 production. As well, platelets in whole blood contain a large amount of the COX-1 enzyme. Immediately following blood clotting, platelets are activated through a thrombin-mediated mechanism. This reaction results in the production of thromboxane B2 (TxB2) via activation of COX-1. Thus, the effect of test compounds on TxB2 levels following blood clotting can be examined and used as an index for COX-1 activity. Therefore, the degree of selectivity by the test compound can be determined by measuring the levels of PGE2 after LPS induction (COX-2) and […] following blood clotting (COX-1) in the same assay.
B. COX-1 (Clotting-induced TxB2 production)
Fresh blood is collected into vacutainers containing no anticoagulants. […] The tubes are vortexed and incubated at 37° C. for 1 hour to allow blood to clot. At the end of incubation, serum is obtained by centrifugation (12,000×g for 5 min.). A 100 μL aliquot of serum is mixed with 400 μL of methanol for protein precipitation. The supernatant is obtained and is assayed for T×B2 using a enzyme immunoassay kit (Cayman, #519031) according to the manufacturer's instruction.

[2] = target: T1, COX-1; assay: Assay of COX-1 activity from U937 cell microsomes; assay type: biochemical; design: Assay of COX-1 Activity from U937 cell microsomes; endogenous in cells; host or cells: U937 cells, 100,000×g microsomal pellet; details: PGE2, read-out: COX-1 (IC50 μM) U-937
Protocol: Assay of COX-1 Activity from U937 cell microsomes
U 937 cells are pelleted by centrifugation at 500×g for 5 min and washed once with phosphate-buffered saline and repelleted. […] The cell suspension is sonicated 4 times for 10 sec and is centrifuged at 10,000×g for 10 min at 4° C. The supernatant is centrifuged at 100,000×g for 1 hr at 4° C. The 100,000×g microsomal pellet is resuspended in 0.1 M Tris-HCl, pH 7.4, 10 mM EDTA to approximately 7 mg protein/ml and stored at -80° C.
Microsomal preparations are thawed immediately prior to use, subjected to a brief sonication, and then diluted to a protein concentration of 125 μg/ml in 0.1 M Tris-HCl buffer, pH 7.4 containing 10 mM EDTA, 0.5 mM phenol, 1 mM reduced glutathione and 1 μM hematin. Assays are performed in duplicate in a final volume of 250 pl. Initially, 5 µl of DMSO vehicle or drug in DMSO are added to 20 μl of 0.1 M Tris-HCl buffer, pH 7.4 containing 10 mM EDTA in wells of a 96-deepwell polypropylene titre plate. 200 μl of the microsomal preparation are then added and pre-incubated for 15 min at room temperature before addition of 25 μl of […] in 0.1 M Tris-HCl and 10 mM EDTA, pH 7.4. Samples are incubated for 40 min at room temperature and the reaction is stopped by the addition of 25 pl of 1 N HCl. Samples are neutralized with 25 μl of 1 N NaOH prior to quantitation of PGE2 content by radioimmunoassay (Dupont-NEN or Amersham assay kits). Cyclooxygenase activity is defined as the difference between PGE2 levels in samples incubated in the presence of arachidonic acid and ethanol vehicle.
(§1) In the assay, inhibition is determined by measuring the amount of prostaglandin E2 (PGE2) synthesized in the presence of arachidonic acid, cyclooxygenase-I or cyclooxygenase-2 and a putative inhibitor.

[3] = target: T2, COX-2 (Homo sapiens, UniProt P35354); assay: Human whole blood assay, COX-2 (LPS-induced PGE2 production); assay type: cell-based; design: incubation of human whole blood with LPS, which induces COX-2; from tissue; host or cells: fresh human whole blood (volunteers), incubated with LPS; details: LPS-induced PGE2, 24 hours at 37° C, read-out: COX-2 (IC50 μM) HWB
T2 sequence (P35354 18-604): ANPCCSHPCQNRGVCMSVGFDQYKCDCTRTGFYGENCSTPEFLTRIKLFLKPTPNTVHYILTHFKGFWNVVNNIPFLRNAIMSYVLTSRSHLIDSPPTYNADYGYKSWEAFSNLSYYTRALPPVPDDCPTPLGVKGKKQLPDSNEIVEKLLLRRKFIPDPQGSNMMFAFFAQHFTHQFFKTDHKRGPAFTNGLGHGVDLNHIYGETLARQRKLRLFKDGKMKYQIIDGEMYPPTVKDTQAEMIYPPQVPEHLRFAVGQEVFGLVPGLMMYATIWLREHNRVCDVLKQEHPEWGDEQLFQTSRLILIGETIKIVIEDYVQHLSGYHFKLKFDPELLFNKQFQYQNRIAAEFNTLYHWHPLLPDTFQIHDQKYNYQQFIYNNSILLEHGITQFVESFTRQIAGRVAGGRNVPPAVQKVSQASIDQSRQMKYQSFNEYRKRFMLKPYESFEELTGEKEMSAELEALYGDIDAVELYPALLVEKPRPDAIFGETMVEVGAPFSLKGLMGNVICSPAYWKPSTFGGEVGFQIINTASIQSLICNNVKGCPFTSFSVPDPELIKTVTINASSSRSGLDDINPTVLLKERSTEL
From the text: As well, platelets in whole blood contain a large amount of the COX-1 enzyme. Immediately following blood clotting, platelets are activated through a thrombin-mediated mechanism. This reaction results in the production of thromboxane B2 (TxB2) via activation of COX-1. Thus, the effect of test compounds on TxB2 levels following blood clotting can be examined and used as an index for COX-1 activity. Therefore, the degree of selectivity by the test compound can be determined by measuring the levels of PGE2 after LPS induction (COX-2) and […] following blood clotting (COX-1) in the same assay.
A. COX-2 (LPS-induced PGE2 production)
Fresh blood is collected in heparinized tubes by venipuncture from both male and female volunteers. The subjects have no apparent inflammatory conditions and have not taken any NSAIDs for at least 7 days prior to blood collection. Plasma is immediately obtained from a 2mL blood aliquot to use as blank (basal levels of PGE2). The remaining blood is incubated with LPS (100 μg/ml final concentration, Sigma Chem, #L-2630 from E. coli; diluted in 0.1% BSA (Phosphate buffered saline) for 5 minutes at room temperature. Five hundred μL aliquots of blood are incubated with either 2μL of vehicle (DMSO) or 2 μL of a test compound at final concentrations varying from 10nM to 30 μM for 24 hours at 37° C. At the end of the incubation, the blood is centrifuged at 12,000×g for 5 minutes to obtain plasma. A 100 μL aliquot of plasma is mixed with 400 μL of methanol for protein precipitation. The supernatant is obtained and is assayed for PGE2 using a radioimmunoassay kit (Amersham, RPA#530) after conversion of PGE2 to its methyl oximate derivative according to the manufacturer's procedure. […]

[4] = target: T2, COX-2; assay: Whole cell assay for COX-2 using CHO transfected cell line (CHO [hCOX-2]), PGE2; assay type: cell-based; design: expressed in transfected cells; host or cells: CHO (Chinese hamster ovary), stably transfected with pCDNAIII vector; CHO [hCOX-2]; details: CHO [hCOX-2] cells, 10 μM AA
Protocol: Chinese hamster ovary (CHO) cell lines which have been stably transfected with an eukaryotic expression vector pCDNAIII containing either the human COX-1 or COX-2 cDNA's are used for the assay. These cell lines are referred to as CHO [hCOX-1] and CHO [hCOX-2], respectively. […] Drugs to be tested are dissolved in DMSO to 66.7-fold the highest test drug concentration. […] Cells (0.3×10^6 cells in 200 p) are preincubated with 3 AIl of the test drug or DMSO vehicle for 15 min at 37° C. […] Cells are then challenged in the presence or absence of drug with the AA/HBSS solution to yield a final concentration of 0.5 μM AA in the CHOhCOX-1] assay and a final concentration of 10 μM AA in the CHO [hCOX-2] assay. […] The samples are centrifuged at 300×g at 4° C. for 10 min, and an aliquot of the clarified supernatant is appropriately diluted for the determination of PGE2 levels using an enzyme-liked immunoassay for PGE2 (Correlate PGE2 enzyme immunoassay kit, Assay Designs, Inc.). Cyclooxygenase activity in the absence of test compounds is determined as the difference in PGE2 levels of cells challenged with arachidonic acid versus the PGE2 levels in cells mock-challenged with ethanol vehicle. Inhibition of PGE2 synthesis by test compounds is calculated as a percentage of the activity in the presence of drug versus the activity in the positive control samples.
as §1

T1 sequence (P23219 24-599): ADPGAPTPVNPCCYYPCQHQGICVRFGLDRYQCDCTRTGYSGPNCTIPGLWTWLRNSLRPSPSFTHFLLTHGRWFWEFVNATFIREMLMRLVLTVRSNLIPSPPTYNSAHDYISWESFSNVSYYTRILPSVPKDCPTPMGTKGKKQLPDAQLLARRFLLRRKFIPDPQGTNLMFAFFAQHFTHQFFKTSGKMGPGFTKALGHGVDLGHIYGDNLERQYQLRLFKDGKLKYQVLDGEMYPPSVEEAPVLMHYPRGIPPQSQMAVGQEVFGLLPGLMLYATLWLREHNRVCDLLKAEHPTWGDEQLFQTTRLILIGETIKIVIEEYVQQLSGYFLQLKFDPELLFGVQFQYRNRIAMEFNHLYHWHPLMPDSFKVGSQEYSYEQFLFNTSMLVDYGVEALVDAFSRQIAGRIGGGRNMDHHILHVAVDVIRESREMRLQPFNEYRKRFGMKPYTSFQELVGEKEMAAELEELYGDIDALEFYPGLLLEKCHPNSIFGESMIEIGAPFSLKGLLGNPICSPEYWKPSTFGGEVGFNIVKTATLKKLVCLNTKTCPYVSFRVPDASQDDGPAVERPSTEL

Row | IC50 [1] [µM] | IC50 [2] [µM] | IC50 [3] [µM] | IC50 [4] [µM] | Compound
1 | > 100 |  |  |  | CC(C)Oc1c(-c2ccc(S(C)(=O)=O)cc2)cnn(Cc2ccccc2)c1=O [Example 21, 2-Benzyl-4-(2-propoxy)-5-(4-methylsulfonyl)phenyl-2H-pyridazin-3-one]
2 | 9 | 0.3 to 1 |  |  | CS(=O)(=O)c1ccc(-c2cnn(Cc3ccccc3)c(=O)c2Oc2ccc(F)cc2)cc1 [Example 22, 2-Benzyl-4-(4-fluorophenoxy)-5-(4-methylsulfonyl)phenyl-2H-pyridazin-3-one]
3 |  | ~10 | 0.56 | 0.029 | CS(=O)(=O)c1ccc(-c2cnn(CC3CCC3)c(=O)c2-c2ccc(F)cc2)cc1 [Example 32, 2-Cyclobutylmethyl-4-(4-fluorophenyl)-5-(4-methylsulfonyl)phenyl-2H-pyridazin-3-one]

— patent publication US6004960A, “Pyridazinones as inhibitors of cyclooxygenase-2” (Merck Frosst Canada, Inc., priority 1998, dated 1999)
